In one experiment the target is BRD4 protein (Homo sapiens (Human), UniProt O60885). The experiment is described as follows: BRD4 protein degradation inducing action in cancer cells (immunofluorescence, Operetta). It counts as cell-based. The note with it: LNCaP cells, 6 hr treatment, fluorescence intensity. Put shortly: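 LNCaP prostate cancer cells in 10% FBS/RPMI1640 were exposed to compound for 6 hr at 37° C, then fixed, permeabilized and immunostained for BRD4 with Alexa Fluor 488 or 546 secondary antibodies plus Hoechst nuclear stain. Fluorescence was read by high-content imaging; DC50 is the concentration giving 50% of untreated signal, interpolated linearly between bracketing points.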

Experiment [1] deals with human prostate cancer LNCaP cells. The experiment is described as follows: Cytotoxic action on cancer cells (WST-8, 96 hr). In kind it is cell-based. The note with it: Homo sapiens, LNCaP, 96 h, read-out: LNCaP cytotoxic activity: IC50. In outline: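 Cells in 10% FBS/RPMI1640 were seeded, cultured overnight at 37° C, 5% CO2, then exposed to DMSO-dissolved compound diluted in medium. Viable cells were counted with a WST-8 kit against compound-free controls. IC50 was interpolated linearly between the two survival points bracketing 50%.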
In general terms: Tetrazolium dyes change colour on reduction, which living cells bring about.

Regarding `COC(=O)C[C@@H]1N=C(c2ccc(-c3ccc4sc(C(=O)N[C@H](C(=O)N5C[C@H](O)C[C@H]5C(=O)N[C@@H](C)c5ccc(-c6scnc6C)cc5)C(C)(C)C)nc4c3)cc2)c2c(sc(C)c2C)-n2c(C)nnc21` [Example 179, methyl [(6S)-4-{4-[2-({(2S)-1-[(2S,4R)-4-hydroxy-2-({(1S)-1-[4-(4-methyl-1,3-thiazol-5-yl)phenyl]ethyl}carbamoyl)pyrrolidin-1-yl]-3,3-dimethyl-1-oxobutan-2-yl}carbamoyl)-1,3-benzothiazol-5-yl]phenyl}-2,3,9-trimethyl-6H-thieno[3,2-f][1,2,4]triazolo[4,3-a][1,4]diazepin-6-yl]acetate], the DC50 (usually the midpoint of the concentration-degradation curve) on BRD4 protein was determined as 0.11 nM. Also, the IC50 (in general, the concentration needed to halve the response being measured) in experiment [1] turned out to be 0.21 nM.
The like results for `COC(=O)C[C@@H]1N=C(c2ccc(-c3cc(C(=O)N[C@H](C(=O)N4C[C@H](O)C[C@H]4C(=O)N[C@@H](C)c4ccc(-c5scnc5C)cc4)C(C)(C)C)ccc3F)cc2)c2c(sc(C)c2C)-n2c(C)nnc21` [Example 106, methyl {(6S)-4-[2′-fluoro-5′-({(2S)-1-[(2S,4R)-4-hydroxy-2-({(1S)-1-[4-(4-methyl-1,3-thiazol-5-yl)phenyl]ethyl}carbamoyl)pyrrolidin-1-yl]-3,3-dimethyl-1-oxobutan-2-yl}carbamoyl)[1,1′-biphenyl]-4-yl]-2,3,9-trimethyl-6H-thieno[3,2-f][1,2,4]triazolo[4,3-a][1,4]diazepin-6-yl}acetate] were, in that order, 0.6 nM and 0.58 nM.
As to `COC(=O)C[C@@H]1N=C(c2ccc(-c3ccc(OCC(=O)N[C@H](C(=O)N4C[C@H](O)C[C@H]4C(=O)N[C@@H](C)c4ccc(-c5scnc5C)cc4)C(C)(C)C)cc3C)cc2)c2c(sc(C)c2C)-n2c(C)nnc21` [Example 49, methyl [(6S)-4-{4′-[2-({(2S)-1-[(2S,4R)-4-hydroxy-2-({(1S)-1-[4-(4-methyl-1,3-thiazol-5-yl)phenyl]ethyl}carbamoyl)pyrrolidin-1-yl]-3,3-dimethyl-1-oxobutan-2-yl}amino)-2-oxoethoxy]-2′-methyl[1,1′-biphenyl]-4-yl}-2,3,9-trimethyl-6H-thieno[3,2-f][1,2,4]triazolo[4,3-a] [1,4]diazepin-6-yl]acetate], the DC50 on BRD4 protein worked out at 0.24 nM. For the same compound, the IC50 in experiment [1] stood at 0.12 nM.
For `Cc1ncsc1-c1ccc([C@H](C)NC(=O)[C@@H]2C[C@@H](O)CN2C(=O)[C@@H](NC(=O)COc2ccc(-c3ccc(C4=N[C@@H](C)c5nnc(C)n5-c5sc(C)c(C)c54)cc3)cc2)C(C)(C)C)cc1` [Example 33, (2S,4R)-1-{(2S)-3,3-dimethyl-2-[2-({4′-[(6S)-2,3,6,9-tetramethyl-6H-thieno[3,2-f][1,2,4]triazolo[4,3-a] [1,4]diazepin-4-yl][1,1′-biphenyl]-4-yl}oxy)acetamido]butanoyl}-4-hydroxy-N-{(1S)-1-[4-(4-methyl-1,3-thiazol-5-yl)phenyl]ethyl}pyrrolidine-2-carboxamide] the same measures were 0.38 nM and 0.26 nM.
For `COC(=O)C[C@@H]1N=C(c2ccc(-c3ccc4nc(C(=O)N[C@H](C(=O)N5C[C@H](O)C[C@H]5C(=O)N[C@@H](C)c5ccc(-c6scnc6C)cc5)C(C)(C)C)oc4c3)cc2)c2c(sc(C)c2C)-n2c(C)nnc21` [Example 181, methyl [(6S)-4-{4-[2-({(2S)-1-[(2S,4R)-4-hydroxy-2-({(1S)-1-[4-(4-methyl-1,3-thiazol-5-yl)phenyl]ethyl}carbamoyl)pyrrolidin-1-yl]-3,3-dimethyl-1-oxobutan-2-yl}carbamoyl)-1,3-benzoxazol-6-yl]phenyl}-2,3,9-trimethyl-6H-thieno[3,2-f][1,2,4]triazolo[4,3-a][1,4]diazepin-6-yl]acetate] the same measures were 0.031 nM and 0.037 nM.
The like results for `COC(=O)C[C@@H]1N=C(c2ccc(N3CC[C@H](C(=O)NCCOc4ccc5oc(C(=O)N[C@H](C(=O)N6C[C@H](O)C[C@H]6C(=O)N[C@@H](C)c6ccc(-c7scnc7C)cc6)C(C)(C)C)cc5c4)C3)cc2)c2c(sc(C)c2C)-n2c(C)nnc21` [Example Compound 68, methyl [(6S)-4-(4-{(3S)-3-[(2-{[2-({(2S)-1-[(2S,4R)-4-hydroxy-2-({(1S)-1-[4-(4-methyl-1,3-thiazol-5-yl)phenyl]ethyl}carbamoyl)pyrrolidin-1-yl]-3,3-dimethyl-1-oxobutan-2-yl}carbamoyl)-1-benzofuran-5-yl]oxy}ethyl)carbamoyl]pyrrolidin-1-yl}phenyl)-2,3,9-trimethyl-6H-thieno[3,2-f][1,2,4]triazolo[4,3-a][1,4]diazepin-6-yl]acetate] were, in that order, 0.46 nM and 0.52 nM.
With `COC(=O)C[C@@H]1N=C(c2ccc(-c3cncc(C(=O)N[C@H](C(=O)N4C[C@H](O)C[C@H]4C(=O)N[C@@H](C)c4ccc(-c5scnc5C)cc4)C(C)(C)C)n3)cc2)c2c(sc(C)c2C)-n2c(C)nnc21` [Example 167, methyl [(6S)-4-{4-[6-({(2S)-1-[(2S,4R)-4-hydroxy-2-({(1S)-1-[4-(4-methyl-1,3-thiazol-5-yl)phenyl]ethyl}carbamoyl)pyrrolidin-1-yl]-3,3-dimethyl-1-oxobutan-2-yl}carbamoyl)pyrazin-2-yl]phenyl}-2,3,9-trimethyl-6H-thieno[3,2-f][1,2,4]triazolo[4,3-a][1,4]diazepin-6-yl]acetate], half-maximal degradation at BRD4 protein (DC50) was put at 0.28 nM. Moreover, in experiment [1], the IC50 was 0.14 nM.
As for `Cc1ncsc1-c1ccc([C@H](C)NC(=O)[C@@H]2C[C@@H](O)CN2C(=O)[C@@H](NC(=O)C2(OCCCc3ccc(C4=N[C@@H](C)c5nnc(C)n5-c5sc(C)c(C)c54)cc3)CC2)C(C)(C)C)cc1` [Example 199, (2S,4R)-1-[(2S)-3,3-dimethyl-2-{[1-(3-{4-[(6S)-2,3,6,9-tetramethyl-6H-thieno[3,2-f][1,2,4]triazolo[4,3-a] [1,4]diazepin-4-yl]phenyl}propoxy)cyclopropane-1-carbonyl]amino}butanoyl]-4-hydroxy-N-{(1S)-1-[4-(4-methyl-1,3-thiazol-5-yl)phenyl]ethyl}pyrrolidine-2-carboxamide], half-maximal degradation on BRD4 protein (DC50) was put at 0.55 nM. The concentration for half-maximal inhibition (IC50) in experiment [1] came out at 0.64 nM.
As to `COC(=O)C[C@@H]1N=C(c2ccc(N3CCc4ccc(C(=O)N[C@H](C(=O)N5C[C@H](O)C[C@H]5C(=O)N[C@@H](C)c5ccc(-c6scnc6C)cc5)C(C)(C)C)cc4C3)cc2)c2c(sc(C)c2C)-n2c(C)nnc21` [Example 161, methyl [(6S)-4-{4-[7-({(2S)-1-[(2S,4R)-4-hydroxy-2-({(1S)-1-[4-(4-methyl-1,3-thiazol-5-yl)phenyl]ethyl}carbamoyl)pyrrolidin-1-yl]-3,3-dimethyl-1-oxobutan-2-yl}carbamoyl)-3,4-dihydroisoquinolin-2(1H)-yl]phenyl}-2,3,9-trimethyl-6H-thieno[3,2-f][1,2,4]triazolo[4,3-a][1,4]diazepin-6-yl]acetate], the DC50 on BRD4 protein was found to be 0.075 nM. Also, the IC50 in experiment [1] turned out to be 0.22 nM.
The like results for `COC(=O)C[C@@H]1N=C(c2ccc(N3CCc4cc(OCC(=O)N[C@H](C(=O)N5C[C@H](O)C[C@H]5C(=O)N[C@@H](C)c5ccc(-c6scnc6C)cc5)C(C)(C)C)ccc43)cc2)c2c(sc(C)c2C)-n2c(C)nnc21` [Example 151, methyl [(6S)-4-(4-{5-[2-({(2S)-1-[(2S,4R)-4-hydroxy-2-({(1S)-1-[4-(4-methyl-1,3-thiazol-5-yl)phenyl]ethyl}carbamoyl)pyrrolidin-1-yl]-3,3-dimethyl-1-oxobutan-2-yl}amino)-2-oxoethoxy]-2,3-dihydro-1H-indol-1-yl}phenyl)-2,3,9-trimethyl-6H-thieno[3,2-f][1,2,4]triazolo[4,3-a] [1,4]diazepin-6-yl]acetate] were, in that order, 0.042 nM and 0.058 nM.
`COC(=O)C[C@@H]1N=C(c2ccc(-c3ccc(C(=O)N[C@H](C(=O)N4C[C@H](O)C[C@H]4C(=O)N[C@@H](C)c4ccc(-c5scnc5C)cc4)C(C)(C)C)cc3)cc2)c2c(sc(CO)c2C)-n2c(C)nnc21` [Example 209, methyl {(6S)-2-(hydroxymethyl)-4-[4′-({(2S)-1-[(2S,4R)-4-hydroxy-2-({(1S)-1-[4-(4-methyl-1,3-thiazol-5-yl)phenyl]ethyl}carbamoyl)pyrrolidin-1-yl]-3,3-dimethyl-1-oxobutan-2-yl}carbamoyl)[1,1′-biphenyl]-4-yl]-3,9-dimethyl-6H-thieno[3,2-f][1,2,4]triazolo[4,3-a][1,4]diazepin-6-yl}acetate] had a DC50 on BRD4 protein of 0.32 nM. For the same compound, in experiment [1], the IC50 came to 0.24 nM.
For `COC(=O)C[C@@H]1N=C(c2ccc(-c3ccc(C(=O)N[C@H](C(=O)N4C[C@H](O)C[C@H]4C(=O)NCc4ccc(-c5scnc5C)cc4)C(C)(C)C)cc3F)cc2)c2c(sc(C)c2C)-n2c(C)nnc21` [Example 189, methyl {(6S)-4-[2′-fluoro-4′-({(2S)-1-[(2S,4R)-4-hydroxy-2-({[4-(4-methyl-1,3-thiazol-5-yl)phenyl]methyl}carbamoyl)pyrrolidin-1-yl]-3,3-dimethyl-1-oxobutan-2-yl}carbamoyl) [1,1′-biphenyl]-4-yl]-2,3,9-trimethyl-6H-thieno [3,2-f][1,2,4]triazolo [4,3-a][1,4]diazepin-6-yl}acetate] the same measures were 0.44 nM and 0.17 nM.
